≈ marks a conversion by molar mass, not a printed value. Read-outs that look alike come from different tables or passages of the source.
Tests used:
[1] = test system: Fluoroquinolone Sensitive Strains; test: In-vitro antimicrobial test, MIC by two-fold serial agar dilution (NCCLS): fluoroquinolone sensitive strains (Table 17); type: cell-based
Experimental: (§1) The test method was in accordance with the standard NCCLS protocol (Methods for Dilution Antimicrobial Susceptibility Tests for Bacteria that grow Aerobicially, Approved Standards, M7-A5, Fifth Edition, January 2000).
(§2) The antibacterial activities (minimum inhibitory concentration: MIC, mcg/ml) were determined by using the two-fold serial agar dilution method recommended by NCCLS. The media used for preculture and main culture were Tryptic Soya broth (Difco) and Mueller Hinton medium (Difco), respectively. The Mueller Hinton agar was supplemented with 5% sheep blood for streptococci. Overnight cultures were diluted with buffered saline (pH 7.2) to the final cell density of 5×10^6-10^7 CFU/ml, and each bacterial suspension was applied with a replicator (Denley's multipoint inoculator, UK) onto a series of Mueller-Hinton agar plates containing antibacterial agents at various concentrations. Final inoculum was approximately 10^4 CFU/spot. The plates were incubated for 18 hrs at 37° C. The MIC was defined as the lowest concentration of an antibacterial agent that inhibits the development of visible microbial growth on agar.

J 744 (mouse macrophage) = test: Cytotoxicity test (Alamar blue), J 744 cells (Table 23); type: cell-based; details: minimum drug concentration inhibiting Alamar blue color change; 3 hrs drug exposure, then 96 hrs incubation; J 744 mouse macrophage cells
Experimental: (§3) Compounds were evaluated for their cytotoxic potential against two […] viz. […] Freshly grown cells were distributed in microtiter plates at a cell density of 10^5-10^6 cells/well and allowed to adhere and form monolayer by incubating the microtiter plate at 37° C. for 24 hrs. […] Following 3 hrs. of drug exposure, cells were washed with D-MEM and incubated further for 96 hrs. Cytotoxic effects of drugs were monitored through daily microscopic observation and by ascertaining the metabolic status through redox indicator Alamar blue. Healthy actively metabolising cells bring about colour change of Alamar blue from blue to pink within an overnight incubation. Cytotoxic drugs inhibit this reaction resulting into blue coloured wells. Minimum drug concentration inhibiting Alamar blue color change i.e. resulting into blue coloured wells for a given drug is considered cytotoxic concentration.

[2] = test system: V79 (Chinese Hamster Lung); test: Cytotoxicity test (Alamar blue), V79 cells (Table 23); type: cell-based; details: minimum drug concentration inhibiting Alamar blue color change, 3 hrs drug exposure, then 96 hrs incubation
Experimental: as §3

[3] = Phototoxicity, oral dose and UVA exposure, mice; details: UVA 4 hours for 4 consecutive days, dose causing ear erythema and oedema
Experimental: The stock solutions for different doses were prepared freshly on the day of experimentation. Appropriate concentration of each dose was chosen to give a constant dosage volume of 0.3-0.4 ml/20 g body weight of mouse. The treated mice were exposed to UVA light source immediately after dosing for 4 hours and for 4 consecutive days. The mean light intensity in the UVA chamber was adjusted to 0.9-1.2 mW/cm^2. The total irradiation dose was approximately 18 Joules/cm^2/day. A phototoxic dose is one which causes ear erythema and oeadema.

[4] = test system: Fluoroquinolone-Resistant Strains; test: In-vitro antimicrobial test, MIC by agar dilution (NCCLS): fluoroquinolone-resistant strains (Table 18); type: cell-based
Experimental: as §1, §2

[5] = Escherichia coli, ATCC25922, E. coli ATCC 25922, read-out: MIC, E. coli ATCC 25922
[6] = Staphylococcus aureus, ATCC 25923 / MSSA, MSSA ATCC 25923, read-out: MIC, MSSA ATCC 25923
[7] = Streptococcus pneumoniae, ATCC49619, S. pneumoniae ATCC 49619, read-out: MIC, S. pneumoniae ATCC 49619

MIC [1, 5] [µg/mL]	MIC [1, 6] [µg/mL]	MIC [1, 7] [µg/mL]	SMILES	Cytotoxic concentration, J 744 Macrophage (J 744 (mouse macrophage)) [µg/mL]	also measured
0.4 (≈ 0.869 µM)	0.05 (≈ 0.109 µM)	0.2 (≈ 0.434 µM)	COc1c(N2CCC(NC(C)=O)C(C)(C)C2)c(F)c(N)c2c(=O)c(C(=O)O)cn(C3CC3)c12 (stereo not drawn) [Compound 61, 5-Amino-1-cyclopropyl-6-fluoro-1,4-dihydro-8-methoxy-7-(4-acetylamino-3,3-dimethyl-1-piperidinyl)-4-oxo-quinoline-3-carboxylic acid]		
			Cc1c(N2CC[C@H](N)[C@H](C)C2)c(F)cc2c(=O)c(C(=O)O)cn(C3CC3)c12 (relative stereo) [Compound 90, cis-1-Cyclopropyl-6-fluoro-1,4-dihydro-8-methyl-7-(4-amino-3-methyl-1-piperidinyl)-4-oxo-quinoline-3-carboxylic acid]	1000	Cytotoxic concentration, V 79 CHL [2]: 125 µg/mL
1.56 (≈ 3.72 µM)	0.025 (≈ 0.0596 µM)	0.4 (≈ 0.954 µM)	COc1c(N2CCC(O)C(C)(C)C2)c(F)c(N)c2c(=O)c(C(=O)O)cn(C3CC3)c12 (stereo not drawn) [Compound 125, 5-Amino-1-cyclopropyl-6-fluoro-1,4-dihydro-8-methoxy-7-(4-hydroxy-3,3-dimethyl-1-piperidinyl)-4-oxo-quinoline-3-carboxylic acid]		
			Cc1c(N2CCC(N)C(C)(C)C2)c(F)cc2c(=O)c(C(=O)O)cn(C3CC3)c12 (racemic) [Compound 91, (±)1-Cyclopropyl-6-fluoro-1,4-dihydro-8-methyl-7-(4-amino-3,3-dimethyl-1-piperidinyl)-4-oxo-quinoline-3-carboxylic acid]	1000	Cytotoxic concentration, V 79 CHL [2]: 750 µg/mL
			Cc1c(N2CC[C@H](N)[C@H](C)C2)c(F)c(N)c2c(=O)c(C(=O)O)cn(C3CC3)c12 (relative stereo) [Compound 111, cis-1-5-Amino-1-cyclopropyl-6-fluoro-1,4-dihydro-8-methyl-7-(4-amino-3-methyl-1-piperidinyl)-4-oxo-quinoline-3-carboxylic acid]		MIC, E. coli ATCC 25922 [1]: 1.56 µg/mL (≈ 4.02 µM); MIC, MSSA ATCC 25923 [1]: 0.8 µg/mL (≈ 2.06 µM)
0.2 (≈ 0.448 µM)	0.05 (≈ 0.112 µM)	0.2 (≈ 0.448 µM)	CCNC1CCN(c2c(F)c(N)c3c(=O)c(C(=O)O)cn(C4CC4)c3c2OC)CC1(C)C (stereo not drawn) [Compound 66, 5-Amino-1-cyclopropyl-6-fluoro-1,4-dihydro-8-methoxy-7-(4-ethylamino-3,3-dimethyl-1-piperidinyl)-4-oxo-quinoline-3-carboxylic acid]		
0.4 (≈ 0.987 µM)	0.025 (≈ 0.0617 µM)	0.2 (≈ 0.493 µM)	COc1c(N2CCC(O)C(C)C2)c(F)c(N)c2c(=O)c(C(=O)O)cn(C3CC3)c12 (stereo not drawn) [Compound 116, 5-Amino-1-cyclopropyl-6-fluoro-1,4-dihydro-8-methoxy-7-(4-hydroxy-3-methyl-1-piperidinyl)-4-oxo-quinoline-3-carboxylic acid]		
6.25 (≈ 14.5 µM)	1.56 (≈ 3.62 µM)	> 6.25	CCNC1C(C)CN(c2c(F)cc3c(=O)c(C(=O)O)cn(C4CC4)c3c2OC)CC1C (stereo not drawn) [Compound 39, 1-Cyclopropyl-6-fluoro-1,4-dihydro-8-methoxy-7-(4-ethylamino-3,5-dimethyl-1-piperidinyl)-4-oxo-quinoline-3-carboxylic acid]		
0.05 (≈ 0.139 µM)	0.1 (≈ 0.277 µM)		Cc1c(N2CCC(O)CC2)c(F)cc2c(=O)c(C(=O)O)cn(C3CC3)c12 [Compound 83, 1-Cyclopropyl-6-fluoro-8-methyl-7-(4-hydroxy-1-piperidinyl)-1,4-dihydro-4-oxo-quinoline-3-carboxylic acid]		
			Cc1c(N2CC[C@@H](N)[C@H](C)C2)c(F)cc2c(=O)c(C(=O)O)cn(C3CC3)c12 (relative stereo) [Compound 89, trans-1-Cyclopropyl-6-fluoro-1,4-dihydro-8-methyl-7-(4-amino-3-methyl-1-piperidinyl)-4-oxo-quinoline-3-carboxylic acid]	1000	Cytotoxic concentration, V 79 CHL [2]: 250 µg/mL
			CCc1c(N2CCC(O)C(C)C2)c(F)cc2c(=O)c(C(=O)O)cn(C3CC3)c12 (mixture of isomers) [Compound 100, cis/trans-1-Cyclopropyl-6-fluoro-8-ethyl-7-(4-hydroxy-3-methyl-1-piperidinyl)-1,4-dihydro-4-oxo-quinoline-3-carboxylic acid]		MIC, E. coli ATCC 25922 [1]: 0.8 µg/mL; MIC, MSSA ATCC 25923 [1]: 0.1 µg/mL; MIC, S. pneumoniae ATCC 49619 [1]: 0.8 µg/mL
			C[C@@H]1CN(c2c(F)c(N)c3c(=O)c(C(=O)O)cn(C4CC4)c3c2F)C[C@H](C)N1 [sparfloxacin, reference compound]		phototoxic dose [3]: 25 mg/kg
			CC[C@@H]1CN(c2c(F)cc3c(=O)c(C(=O)O)cn(C4CC4)c3c2C)CC[C@H]1O (relative stereo) [Compound 88, cis/trans-1-Cyclopropyl-6-fluoro-8-methyl-7-(4-hydroxy-3-ethyl-1-piperidinyl)-1,4-dihydro-4-oxo-quinoline-3-carboxylic acid]		MIC, Cipro^R S. mitis 938 ([4]; Cipro^R S. mitis 938): 3.12 µg/mL (≈ 8.03 µM); MIC, Cipro^R S. sanguis 941 ([4]; Cipro^R S. sanguis 941): 3.12 µg/mL (≈ 8.03 µM); MIC, FQ^R S. pneumoniae 718 ([4]; FQ^R S. pneumoniae 718): 3.12 µg/mL (≈ 8.03 µM); MIC, MRSA 032 ([4]; MRSA 032): 0.8 µg/mL (≈ 2.06 µM); MIC, E. coli ATCC 25922 [1]: 0.4 µg/mL (≈ 1.03 µM); MIC, E. faecalis ATCC 29212 ([1]; E. faecalis ATCC 29212): 0.2 µg/mL (≈ 0.515 µM); MIC, MSSA ATCC 25923 [1]: 0.012 µg/mL (≈ 0.0309 µM); MIC, P. aeruginosa 27853 ([1]; P. aeruginosa 27853): 12.5 µg/mL (≈ 32.2 µM); MIC, S. pneumoniae ATCC 49619 [1]: 0.1 µg/mL (≈ 0.257 µM); MIC, S. sanguis ATCC 10556 ([1]; S. sanguis ATCC 10556 (Viridans Streptococci)): 0.2 µg/mL (≈ 0.515 µM)
		0.05 (≈ 0.129 µM)	Cc1c(N2CCC(N)C(C)(C)C2)c(F)cc2c(=O)c(C(=O)O)cn(C3CC3)c12 (stereo not drawn) [Compound 94, 1-Cyclopropyl-6-fluoro-1,4-dihydro 8-methyl-7-(4-amino-3,3-dimethyl-1-piperidinyl)-4-oxo-quinoline-3-carboxylic acid]		
			N[C@@H]1[C@H]2CN(c3nc4c(cc3F)c(=O)c(C(=O)O)cn4-c3ccc(F)cc3F)C[C@@H]12 [Trovafloxacin, reference compound]	500	
0.4 (≈ 0.841 µM)	0.4 (≈ 0.841 µM)	1.56 (≈ 3.28 µM)	COc1c(N2CCC(N)C(C)(C)C2)c(F)cc2c(=O)c(C(=O)O)cn(-c3ccc(F)cc3F)c12 (stereo not drawn) [Compound 17, 1-(2,4-Difluorophenyl)-6-fluoro-1,4-dihydro-8-methoxy-7-(4-amino-3,3-dimethyl-1-piperidinyl)-4-oxo-quinoline-3-carboxylic acid]		
			Cc1c(N2CCC(N)C(C)(C)C2)c(F)cc2c(=O)c(C(=O)O)cn(C3CC3)c12 (racemic) [Compound 92, (±)-1-Cyclopropyl-6-fluoro-1,4-dihydro-8-methyl-7-(4-amino-3,3-dimethyl-1-piperidinyl)-4-oxo-quinoline-3-carboxylic acid]	>1000	MIC, E. coli ATCC 25922 [1]: 0.05 µg/mL (≈ 0.129 µM); MIC, MSSA ATCC 25923 [1]: 0.025 µg/mL (≈ 0.0645 µM); Cytotoxic concentration, V 79 CHL [2]: >1000 µg/mL
0.4 (≈ 0.954 µM)	< 0.006	0.1 (≈ 0.238 µM)	COc1c(N2CC(C)C(O)C(C)C2)c(F)c(N)c2c(=O)c(C(=O)O)cn(C3CC3)c12 (stereo not drawn) [Compound 127, 5-Amino-1-cyclopropyl-6-fluoro-1,4-dihydro-8-methoxy-7-(4-hydroxy-3,5-dimethyl-1-piperidinyl)-4-oxo-quinoline-3-carboxylic acid]		
			Cc1c(N2CCC(N)C(C)(C)C2)c(F)cc2c(=O)c(C(=O)O)cn(C3CC3)c12 (single isomer, unassigned; (-)) [Compound 93, (−)-1-Cyclopropyl-6-fluoro-1,4-dihydro-8-methyl-7-(4-amino-3,3-dimethyl-1-piperidinyl)-4-oxo-quinoline-3-carboxylic acid]	1000	MIC ([4]; Staphylococcus aureus, MRSA, MRSA 032, read-out: MIC, MRSA 032): 0.4 µg/mL (≈ 1.03 µM); MIC ([4]; Streptococcus mitis, Cipro^R S. mitis 938, read-out: MIC, Cipro^R S. mitis 938): 0.8 µg/mL (≈ 2.06 µM); MIC ([4]; Streptococcus pneumoniae, FQ^R S. pneumoniae 718, read-out: MIC, FQ^R S. pneumoniae 718): 0.4 µg/mL (≈ 1.03 µM); MIC ([1]; Pseudomonas aeruginosa, P. aeruginosa 27853, read-out: MIC, P. aeruginosa 27853): 1.56 µg/mL (≈ 4.03 µM); Cytotoxic concentration, V 79 CHL [2]: 250 µg/mL

Reference: patent publication US6964966B2, “Generation triple-targeting, chiral, broad-spectrum antimicrobial 7-substituted piperidino-quinolone carboxylic acid derivatives, their preparation, compositions and use as medicaments” (Wockhardt Limited, priority 2001, dated 2005)
